This note sets out measurements from US20250268975A1 (priority 2024, published 2025).

For the assay, the system named is transgenic Zaire Ebola virus (EBOV) of the Mayinga strain, expressing green fluorescent protein (EBOV-GFP). Type of assay: cell-based.

*1 amine or outer side, *2 acyl side, *3 side chain or, on linkers, in order; H or OH if unused. Where a SMILES comes first, the peptide text is derived from it. [ ]: non-standard residue; d: D form. X1 = CCCCCCCCCCCCCCN(CC(=O)[*:2])[*:1]; Nrpe = C[C@@H](NCC(=O)O)c1ccccc1; Nlys = NCCCCNCC(=O)O

Consider `CCCCCCCCCCCCCCNCC(=O)N(CCCCN)CC(=O)N(CC(=O)N(CC(=O)N(CCCCN)CC(N)=O)[C@H](C)c1ccccc1)[C@H](C)c1ccccc1` [MXB-24,816, H-Ntetradec-Nlys-Nspe-Nspe-Nlys-NH2] (H-[X1][Nlys][Nrpe][Nrpe][Nlys]-NH2), for which the “antiviral activity against Ebola virus (inhibition of viral titers and GFP-positive Ebola virus replication)” value is “showed antiviral activity”.
